According to patent publication US5051419A, “Prevention or elimination of mycoplasma contamination of animal or plant cell cultures” (Dainippon Pharmaceutical Co., Ltd., priority 1988, dated 1991):
≈ marks a conversion by molar mass, not a printed value.

Tests used:
[1] = test system: human melanoma cells [II]; experiment: Activity of eliminating spontaneously contaminated mycoplasmas, cell [II]; type: cell-based, mycoplasma species unknown; human cells; note: key: +: mycoplasma positive; -: mycoplasma negative
Procedure: (§1) Mycoplasma-contaminated L-929 cells were cultivated as described in the preceding section. A 1,000 μg/ml aqueous solution of a test chemical was prepared, and diluted to predetermined concentrations with Eagle's minimum essential medium. The diluted solutions were added to the culture medium. Two petri dishes were used for each concentration of the test chemical, and two circular cover glasses were put in one of them for examination of mycoplasma. No cover glass was put in the other petri dish, and it was used for subcultivation. Cultivation in the test chemical-containing medium was carried out for 4 days, and thereafter, the cultivation was continued for 3 weeks in a drug-free medium. Medium replacement was effected every 3 to 4 days, and subcultivation was carried out once a week. Examination for mycoplasma contamination was performed on the 4th and 7th days, and thereafter every week. The mycoplasmas were detected by the highly specific DNA-fluorochromic staining method.
(§2) The activity of test compound to eliminate mycoplasma contamination was tested as in Test Example 3 on spontaneously contaminated human lung carcinoma cells [I] and human melanoma cells [II].
(§3) The period during which the cultivation was continued in the presence of the test chemicals was 7 days, and the mycoplasma species which infected the cells were unknown.

M. arginini G-230 = experiment: Activity of eliminating artificially contaminated mycoplasma from L-929 cells; type: cell-based, Mycoplasma arginini
Procedure: (§4) Animal cells, experimentally contaminated by mycoplasma, were cultivated for 4 days in a medium containing the test chemical and then sub-cultivated in a medium to which the test chemical was not added in order to determine whether the mycoplasma re-grew (re-contamination).
(§5) (1) Preparation of mycoplasma-contaminated cells
(§6) The mycoplasmas described in Table 3 were each pre-cultivated as in Test Example 1, (1). Two milliliters of the cultures were centifuged at 1,500×g for 30 minutes to separate the mycoplasmas. The isolated mycoplasmas were suspended in 2 ml of 10%-FBS-MEM medium (Eagle's minimum essential medium supplemented with 10% fetal bovine serum and 100 U/ml of penicillin G).
(§7) Separately, mouse fibroblast cells L-929 was suspended in 10%-FBS-MEM medium so that their density became 2.5×10^4 /ml. Four milliliters of the suspension was put in a petri dish (diameter 6 cm) for tissue culture including two circular cover glasses (diameter 1.8 cm), and then 1 ml of the mycoplasma suspension described above was added. The mixture was incubated at 37° C. in 5% CO2 humidified atmosphere for 3 days, and then sub-cultivated twice in order to obtain mycoplasma-contaminated cells. Mycoplasma-contamination was confirmed by the highly specific DNA-fluorochromic staining method (the above cited "Procedures for Isolation and identification of Human, Animal and Plant Mycoplasmas", pages 95-97).
(§8) (2) Experiment of eliminating mycoplasma contamination
as §1

A. laidlawii PG-8 [2] = experiment: as above; type: cell-based, Acholeplasma laidlawii
Procedure: as §4, §5, §6, §7, §8, §1

Staphylococcus aureus = experiment: Antibacterial activity (MIC); type: cell-based; settings: for MIC: unit inferred
mycoplasma = experiment: Anti-mycoplasmal activity (MIC, MMC), liquid dilution method, all species of Table 2 together; type: cell-based; settings: in words
Procedure: (§9) The minimum growth inhibitory concentration (MIC, μg/ml) and minimum mycoplasmacidal concentration (MMC, μg/ml) of test chemicals were measured by the liquid dilution method. The method of measuring MIC in this example differs from that used in Test Example 1.
(§10) A 1,000 μg/ml aqueous solution of a test chemical was prepared, and diluted to 5 times with a preculture medium. The dilution (200 μg/ml) was serially diluted twofold with the same medium in a 8-well reservoir. Fifty microliters of each diluted solution was distributed in the wells of a microplate. A well to which no test chemical was added was used as a control.
A mycoplasma suspension for inoculation prepared as in Test Example 1 was pipetted in an amount of 50 microliters to each of the wells. The microplates were sealed by a plate seal, shaken by a micromixer, and cultivated at 37° C. for 5 days. […] At this time, 3 microliters of the liquid culture was inoculated in drug-free Chanock agar medium by using a Cathra-replicator. The liquid culture and the agar medium were further cultivated at 37° C. for 3 days (anaerobically in the case of M. orale, and aerobically in the case of A. laidlawii and M. arginini). MIC and MMC were determined from the results of observation on the 5th day. MIC was defined as the lowest concentration of the test chemical at which growth of mycoplasma in the drug-containing liquid medium was not noted, and MMC, as that in the drug-free agar medium.

FL human-amnion cells = experiment: Cytotoxicity on FL cells (cell proliferation inhibition); type: cell-based; settings: for IC50: Homo sapiens, 72 h, FL cells, 3 days, read-out: IC50 (50% cell proliferation inhibitory concentration)
Procedure: Whether test chemicals would inhibit growth of cells was examined.
A 1,000 μg/ml aqueous solution of each of the test chemicals was serially diluted twofold with Eagle's minimum essential medium.
FL human-amnion cells (2×10^4 cells) were suspended in 3.6 ml of 10% FBS-MEM medium, put in petri dishes (diameter 60 mm) for tissue culture, and cultivated at 37° C. in 5% CO2 humidified atmosphere for 48 hours. The test chemical solution prepared as above was added in an amount of 0.4 ml to each of the petri dishes in predetermined concentrations, and the cells were cultivated for 3 days. After the cultivation, the medium was removed, and the remainder was washed once with Dulbecco's phosphate buffer (pH 7.4). The cells were peeled off by adding 0.2 ml of a 2.5% trypsin-0.002% EDTA mixed solution (1:9) and properly diluted with 10% FBS-MEM medium. Then, the number of the cells was counted by an Erma hemocytometer.
The cell proliferation rate was calculated by following formula [formula]

A. laidlawii PG-8 [3] = experiment: Anti-mycoplasmal activity (MIC, MMC), liquid dilution method; type: cell-based; settings: Acholeplasma laidlawii, liquid dilution, A. laidlawii PG-8; for MBC: PG8, 120 h, read-out: MMC; for MIC: PG8, read-out: MIC
Procedure: as §9, §10
A mycoplasma suspension for inoculation prepared as in Test Example 1 was pipetted in an amount of 50 microliters to each of the wells. The microplates were sealed by a plate seal, shaken by a micromixer, and cultivated at 37° C. for 5 days. In the control to which no test chemical was added, color change of the medium by the growth of mycoplasma was observed after two days from the start of the cultivation. At this time, 3 microliters of the liquid culture was inoculated in drug-free Chanock agar medium by using a Cathra-replicator. The liquid culture and the agar medium were further cultivated at 37° C. for 3 days (anaerobically in the case of M. orale, and aerobically in the case of A. laidlawii and M. arginini). MIC and MMC were determined from the results of observation on the 5th day. MIC was defined as the lowest concentration of the test chemical at which growth of mycoplasma in the drug-containing liquid medium was not noted, and MMC, as that in the drug-free agar medium.

[4] = test system: spontaneously contaminated human lung carcinoma cells [I]; experiment: Activity of eliminating spontaneously contaminated mycoplasmas, cell [I]; type: cell-based, mycoplasma species unknown; human cells; note: key: +: mycoplasma positive; -: mycoplasma negative
Procedure: as §1, §2, §3

SMILES: CC1CN(c2c(F)c(N)c3c(=O)c(C(=O)O)cn(C4CC4)c3c2F)CCN1 (centres unmarked) [Compound 1]
- mycoplasma elimination ([1]; 0.2 μg/ml, day 0): +
- mycoplasma elimination ([1]; 0.2 μg/ml, day 7): -
- mycoplasma elimination ([1]; 0.2 μg/ml, day 14): +
- mycoplasma elimination ([1]; 0.2 μg/ml, day 21): +
- mycoplasma elimination ([1]; 0.2 μg/ml, day 28): +
- mycoplasma elimination ([1]; 0.39 μg/ml, day 0): +
- mycoplasma elimination ([1]; 0.39 μg/ml, day 7): -
- mycoplasma elimination ([1]; 0.39 μg/ml, day 14): -
- mycoplasma elimination ([1]; 0.39 μg/ml, day 21): -
- mycoplasma elimination ([1]; 0.39 μg/ml, day 28): -
- mycoplasma elimination (M. arginini G-230; 0.2 μg/ml, day 0): +
- mycoplasma elimination (M. arginini G-230; 0.2 μg/ml, day 4): +
- mycoplasma elimination (M. arginini G-230; 0.2 μg/ml, day 7): +
- mycoplasma elimination (M. arginini G-230; 0.2 μg/ml, day 14): +
- mycoplasma elimination (M. arginini G-230; 0.2 μg/ml, day 28): +
- mycoplasma elimination (M. arginini G-230; 0.39 μg/ml, day 0): +
- mycoplasma elimination (M. arginini G-230; 0.39 μg/ml, day 4): -
- mycoplasma elimination (M. arginini G-230; 0.39 μg/ml, day 7): -
- mycoplasma elimination (M. arginini G-230; 0.39 μg/ml, day 14): -
- mycoplasma elimination (M. arginini G-230; 0.39 μg/ml, day 28): -
- mycoplasma elimination (A. laidlawii PG-8 [2]; 0.2 μg/ml, day 0): +
- mycoplasma elimination (A. laidlawii PG-8 [2]; 0.2 μg/ml, day 4): +
- mycoplasma elimination (A. laidlawii PG-8 [2]; 0.2 μg/ml, day 7): +
- mycoplasma elimination (A. laidlawii PG-8 [2]; 0.2 μg/ml, day 14): +
- mycoplasma elimination (A. laidlawii PG-8 [2]; 0.2 μg/ml, day 28): +
- mycoplasma elimination (A. laidlawii PG-8 [2]; 0.39 μg/ml, day 0): +
- mycoplasma elimination (A. laidlawii PG-8 [2]; 0.39 μg/ml, day 4): -
- mycoplasma elimination (A. laidlawii PG-8 [2]; 0.39 μg/ml, day 7): -
- mycoplasma elimination (A. laidlawii PG-8 [2]; 0.39 μg/ml, day 14): -
- mycoplasma elimination (A. laidlawii PG-8 [2]; 0.39 μg/ml, day 28): -
- MIC (Staphylococcus aureus; Staphylococcus aureus): 0.025 µg/mL (≈ 0.0661 µM)
- MIC compared with MMC (mycoplasma; Table 2): identical with their MMC values
- mode of action at the MIC (mycoplasma; Table 2): act mycoplasmacidally at the MICs
- IC50 (FL human-amnion cells): 13.2 µg/mL (≈ 34.9 µM)
- MBC (A. laidlawii PG-8 [3]): 0.2 µg/mL (≈ 0.529 µM)
- MIC (A. laidlawii PG-8 [3]): 0.2 µg/mL (≈ 0.529 µM)
- mycoplasma elimination ([4]; 0.2 μg/ml, day 0): +
- mycoplasma elimination ([4]; 0.2 μg/ml, day 7): +
- mycoplasma elimination ([4]; 0.2 μg/ml, day 14): +
- mycoplasma elimination ([4]; 0.2 μg/ml, day 28): +
- mycoplasma elimination ([4]; 0.39 μg/ml, day 0): +
- mycoplasma elimination ([4]; 0.39 μg/ml, day 7): -
- mycoplasma elimination ([4]; 0.39 μg/ml, day 14): -
- mycoplasma elimination ([4]; 0.39 μg/ml, day 28): -

SMILES: CN(C)c1ccc(O)c2c1C[C@H]1C[C@H]3[C@H](N(C)C)C(O)=C(C(N)=O)C(=O)[C@@]3(O)C(O)=C1C2=O [Compound 3, minocycline]
- mycoplasma elimination (M. arginini G-230; 12.5 μg/ml, day 0): +
- mycoplasma elimination (M. arginini G-230; 12.5 μg/ml, day 4): -
- mycoplasma elimination (M. arginini G-230; 12.5 μg/ml, day 7): -
- mycoplasma elimination (M. arginini G-230; 12.5 μg/ml, day 14): +
- mycoplasma elimination (M. arginini G-230; 12.5 μg/ml, day 28): +
- mycoplasma elimination (A. laidlawii PG-8 [2]; 12.5 μg/ml, day 0): +
- mycoplasma elimination (A. laidlawii PG-8 [2]; 12.5 μg/ml, day 4): -
- mycoplasma elimination (A. laidlawii PG-8 [2]; 12.5 μg/ml, day 7): +
- mycoplasma elimination (A. laidlawii PG-8 [2]; 12.5 μg/ml, day 14): +
- mycoplasma elimination (A. laidlawii PG-8 [2]; 12.5 μg/ml, day 28): +
- mode of action at the MIC (mycoplasma; Table 2): acts bacteriostatically, and not mycoplasmacidally, at its MIC
- MBC (A. laidlawii PG-8 [3]): > 100 µg/mL
- MIC (A. laidlawii PG-8 [3]): 0.2 µg/mL (≈ 0.437 µM)

SMILES: NCC1CN(c2c(F)c(N)c3c(=O)c(C(=O)O)cn(C4CC4)c3c2F)CCO1 (centres unmarked) [Compound A, 5-amino-7-(2-aminomethylmorpholino)-1-cyclopropyl-6,8-difluoro-1,4-dihydro-4-oxoquinoline-3-carboxylic acid]
- mycoplasma elimination ([1]; 0.1 μg/ml, day 0): +
- mycoplasma elimination ([1]; 0.1 μg/ml, day 7): -
- mycoplasma elimination ([1]; 0.1 μg/ml, day 14): +
- mycoplasma elimination ([1]; 0.1 μg/ml, day 21): +
- mycoplasma elimination ([1]; 0.1 μg/ml, day 28): +
- mycoplasma elimination ([1]; 0.2 μg/ml, day 0): +
- mycoplasma elimination ([1]; 0.2 μg/ml, day 7): -
- mycoplasma elimination ([1]; 0.2 μg/ml, day 14): -
- mycoplasma elimination ([1]; 0.2 μg/ml, day 21): -
- mycoplasma elimination ([1]; 0.2 μg/ml, day 28): -
- mycoplasma elimination (M. arginini G-230; 0.1 μg/ml, day 0): +
- mycoplasma elimination (M. arginini G-230; 0.1 μg/ml, day 4): +
- mycoplasma elimination (M. arginini G-230; 0.1 μg/ml, day 7): +
- mycoplasma elimination (M. arginini G-230; 0.1 μg/ml, day 14): +
- mycoplasma elimination (M. arginini G-230; 0.1 μg/ml, day 28): +
- mycoplasma elimination (M. arginini G-230; 0.2 μg/ml, day 0): +
- mycoplasma elimination (M. arginini G-230; 0.2 μg/ml, day 4): -
- mycoplasma elimination (M. arginini G-230; 0.2 μg/ml, day 7): -
- mycoplasma elimination (M. arginini G-230; 0.2 μg/ml, day 14): -
- mycoplasma elimination (M. arginini G-230; 0.2 μg/ml, day 28): -
- mycoplasma elimination (A. laidlawii PG-8 [2]; 0.1 μg/ml, day 0): +
- mycoplasma elimination (A. laidlawii PG-8 [2]; 0.1 μg/ml, day 4): -
- mycoplasma elimination (A. laidlawii PG-8 [2]; 0.1 μg/ml, day 7): +
- mycoplasma elimination (A. laidlawii PG-8 [2]; 0.1 μg/ml, day 14): +
- mycoplasma elimination (A. laidlawii PG-8 [2]; 0.1 μg/ml, day 28): +
- mycoplasma elimination (A. laidlawii PG-8 [2]; 0.2 μg/ml, day 0): +
- mycoplasma elimination (A. laidlawii PG-8 [2]; 0.2 μg/ml, day 4): -
- mycoplasma elimination (A. laidlawii PG-8 [2]; 0.2 μg/ml, day 7): -
- mycoplasma elimination (A. laidlawii PG-8 [2]; 0.2 μg/ml, day 14): -
- mycoplasma elimination (A. laidlawii PG-8 [2]; 0.2 μg/ml, day 28): -
- MIC (Staphylococcus aureus; Staphylococcus aureus): 0.0063 µg/mL (≈ 0.016 µM)
- antibacterial activity (Staphylococcus aureus; in words): potent antibacterial activity and is superior to control compounds 1 to 4
- antibacterial activity relative to compound 1 (Staphylococcus aureus; in words, Staphylococcus aureus): about four times as potent antibacterial activity as compound 1
- MIC compared with MMC (mycoplasma; Table 2): identical with their MMC values
- anti-mycoplasmal activity compared with control compounds (mycoplasma; Table 2): better than those of the control compounds
- mode of action at the MIC (mycoplasma; Table 2): act mycoplasmacidally at the MICs
- mycoplasmacidal activity, overall (mycoplasma; summary): excellent mycoplasmacidal activity
- IC50 (FL human-amnion cells): 18 µg/mL (≈ 45.6 µM)
- safety range (FL human-amnion cells; in words, IC50/MIC): the safety range is broadest in compound A
- toxicity on cultivated cells (FL human-amnion cells; in words, summary): little toxicity on cultivated cells
- MBC (A. laidlawii PG-8 [3]): 0.0125 µg/mL (≈ 0.0317 µM)
- MIC (A. laidlawii PG-8 [3]): 0.0125 µg/mL (≈ 0.0317 µM)
- mycoplasma elimination ([4]; 0.1 μg/ml, day 0): +
- mycoplasma elimination ([4]; 0.1 μg/ml, day 7): +
- mycoplasma elimination ([4]; 0.1 μg/ml, day 14): +
- mycoplasma elimination ([4]; 0.1 μg/ml, day 28): +
- mycoplasma elimination ([4]; 0.2 μg/ml, day 0): +
- mycoplasma elimination ([4]; 0.2 μg/ml, day 7): -
- mycoplasma elimination ([4]; 0.2 μg/ml, day 14): -
- mycoplasma elimination ([4]; 0.2 μg/ml, day 28): -
